US20210369853A1, “TARGETED PROTEASE DEGRADATION PLATFORM” (EUBULUS BIOTHERAPEUTICS INC., priority 2018, published 2021)
pEC50: −log10 of the molar value. Like-named read-outs stand apart in the source and are kept apart here.

Key:
Assay type in all cases: cell-based
[1] = test system: Human Monocytic Leukemia MV4-11; assay: Cell proliferation experiment (Alarm blue, 72 h, EC50)
Method in brief: (§1)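 Alamar blue fluorescence after 72 h compound exposure; 5-fold serial dilutions, duplicate wells per concentration; EC50 from four-parameter logistic fit.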

[2] = test system: Human cervical adenocarcinoma cells Hela; assay: as above; conditions: Homo sapiens
Method in brief: as §1

[3] = test system: Human Colon Cancer HCT-116; assay: as above; conditions: Homo sapiens, HCT-116; HCT116 cells
Method in brief: as §1

PLK1 = target: T1, PLK1 (Homo sapiens, UniProt P53350); assay: Western blot, protein degradation (DC50)
T1 construct: endogenous in cells
Procedure: (§2) Cells were treated with the compound for a period of time, after that the cells were collected by centrifugation. After washing with PBS, the cells were lysed by adding RIPA buffer; the cell lysate were added to the loading buffer and then appropriate volume were taken and slowly added to the corresponding wells of the gel plate, and run the SDS-PAGE gel (4%-12%). After running the gel, transferred to the PVDF membrane and sealed with 5% skimmed milk powder at room temperature for 1 hour. The membrane was placed in the primary antibody diluted with 5% skimmed milk powder and shaked slowly overnight at 4° C. After incubation with primary antibody, the membrane was washed 3 times using a TBST shaker; added secondary antibody diluted with 5% skimmed milk powder corresponding to the primary antibody, and shaked slowly at room temperature for 1 hour. After incubation with secondary antibody, the membrane was washed 3 times using the TBST shaker again. The PVDF membrane was flatted in the cassette, the strip was evenly infiltrated with ECL developer solution, and placed in ChemDoc XRS+ gel imager for taking pictures. The intensity of protein bands was analyzed quantitatively using ImageJ software.

BRD4 = target: T2, BRD4 (Homo sapiens, UniProt O60885); assay: Western blot, protein degradation (DC50)
T2 construct: endogenous in cells
Procedure: as §2

[4] = Homo sapiens, MV4-11, MV4;11 cells
[5] = 24 h, western blot, read-out: PLK1 DC50 (24 h)
[6] = 24 h, western blot, read-out: BRD4 DC50 (24 h)
[7] = 6 h, western blot, read-out: PLK1 DC50 (6 h)
[8] = 6 h, western blot, read-out: BRD4 DC50 (6 h)
[9] = 24 h, read-out: PLK1 DC50 (nM) (24 h)
[10] = 24 h, read-out: BRD4 DC50 (nM) (24 h)

T1 sequence (P53350 whole entry): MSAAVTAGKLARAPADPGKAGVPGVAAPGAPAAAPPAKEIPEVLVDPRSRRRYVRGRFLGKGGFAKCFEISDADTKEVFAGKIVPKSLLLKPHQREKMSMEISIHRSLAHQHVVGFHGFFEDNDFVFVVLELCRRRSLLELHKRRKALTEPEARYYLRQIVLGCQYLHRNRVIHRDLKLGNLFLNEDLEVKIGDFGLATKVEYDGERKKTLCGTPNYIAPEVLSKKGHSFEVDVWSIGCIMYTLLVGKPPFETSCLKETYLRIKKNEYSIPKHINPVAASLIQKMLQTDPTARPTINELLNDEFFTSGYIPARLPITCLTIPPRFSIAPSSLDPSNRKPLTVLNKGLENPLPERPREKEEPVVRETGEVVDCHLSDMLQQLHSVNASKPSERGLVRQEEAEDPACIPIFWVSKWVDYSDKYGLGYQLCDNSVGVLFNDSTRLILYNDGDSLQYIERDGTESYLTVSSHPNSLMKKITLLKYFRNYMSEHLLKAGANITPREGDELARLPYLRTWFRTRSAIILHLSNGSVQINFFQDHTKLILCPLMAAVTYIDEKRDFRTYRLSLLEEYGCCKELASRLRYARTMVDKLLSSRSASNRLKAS

SMILES	pEC50 [1, 4]	pEC50 [2]	other results
CC[C@@H]1c2nncn2-c2cnc(Nc3ccc(C(=O)NCCCOCC(=O)Nc4cccc5c4CN(C4CCC(=O)NC4=O)C5=O)cc3OC)nc2N1C1CCCC1 (stereo partly shown) [UB-180510]	< 6.00	< 6.00	–
CC[C@@H]1c2c(C#N)ncn2-c2cnc(Nc3ccc(C(=O)NCCCCOCC(=O)Nc4cccc5c4CN(C4CCC(=O)NC4=O)C5=O)cc3OC)nc2N1C1CCCC1 (stereo partly shown) [UB-180512]	6.00 to 7.00	< 6.00	–
CC[C@@H]1c2nncn2-c2cnc(Nc3ccc(C(=O)NCCOCCOCCOCC(=O)N[C@H](C(=O)N4C[C@H](O)C[C@H]4C(=O)NCc4ccc(-c5scnc5C)cc4)C(C)(C)C)cc3OC)nc2N1C1CCCC1 [UB-180516]	< 6.00	< 6.00	–
CC[C@@H]1c2c(C#N)ncn2-c2cnc(Nc3ccc(C(=O)NCCOCC(=O)Nc4cccc5c4CN(C4CCC(=O)NC4=O)C5=O)cc3OC)nc2N1C1CCCC1 (stereo partly shown) [UB-180518]	< 6.00	< 6.00	–
CC[C@@H]1c2c(C#N)ncn2-c2cnc(Nc3ccc(C(=O)NCCOCCOCCOCC(=O)N[C@H](C(=O)N4C[C@H](O)C[C@H]4C(=O)NCc4ccc(-c5scnc5C)cc4)C(C)(C)C)cc3OC)nc2N1C1CCCC1 [UB-180519]	7.00 to 8.00	< 6.00	–
CC[C@@H]1c2nncn2-c2cnc(Nc3ccc(C(=O)NCCCC(=O)Nc4cccc5c4CN(C4CCC(=O)NC4=O)C5=O)cc3OC)nc2N1C1CCCC1 (stereo partly shown) [UB-180521]	< 6.00	< 6.00	–
CC[C@@H]1c2nncn2-c2cnc(Nc3ccc(C(=O)NCCOCCOCCOCCC(=O)N[C@H](C(=O)N4C[C@H](O)C[C@H]4C(=O)NCc4ccc(-c5scnc5C)cc4)C(C)(C)C)cc3OC)nc2N1C1CCCC1 [UB-180522]	6.00 to 7.00	< 6.00	–
CC[C@@H]1c2nncn2-c2cnc(Nc3ccc(C(=O)NCCCCOCC(=O)Nc4cccc5c4CN(C4CCC(=O)NC4=O)C5=O)cc3OC)nc2N1C1CCCC1 (stereo partly shown) [UB-180524]	7.00 to 8.00	< 6.00	–
CC[C@@H]1c2c(C#N)ncn2-c2cnc(Nc3ccc(C(=O)NCCCC(=O)Nc4cccc5c4CN(C4CCC(=O)NC4=O)C5=O)cc3OC)nc2N1C1CCCC1 (stereo partly shown) [UB-180537]	6.00 to 7.00	< 6.00	–
CC[C@@H]1c2c(C#N)ncn2-c2cnc(Nc3ccc(C(=O)NCCOCCOCCC(=O)Nc4cccc5c4CN(C4CCC(=O)NC4=O)C5=O)cc3OC)nc2N1C1CCCC1 (stereo partly shown) [UB-180538]	< 6.00	< 6.00	–
CC[C@@H]1c2nncn2-c2cnc(Nc3ccc(C(=O)NCCCC(=O)N[C@H](C(=O)N4C[C@H](O)C[C@H]4C(=O)NCc4ccc(-c5scnc5C)cc4)C(C)(C)C)cc3OC)nc2N1C1CCCC1 [UB-180539]	7.00 to 8.00	< 6.00	–
CC[C@@H]1c2nncn2-c2cnc(Nc3ccc(C(=O)NCCOCC(=O)N[C@H](C(=O)N4C[C@H](O)C[C@H]4C(=O)NCc4ccc(-c5scnc5C)cc4)C(C)(C)C)cc3OC)nc2N1C1CCCC1 [UB-180540]	< 6.00	< 6.00	–
CC[C@@H]1c2nncn2-c2cnc(Nc3ccc(C(=O)NCCCOCC(=O)N[C@H](C(=O)N4C[C@H](O)C[C@H]4C(=O)NCc4ccc(-c5scnc5C)cc4)C(C)(C)C)cc3OC)nc2N1C1CCCC1 [UB-180541]	6.00 to 7.00	< 6.00	–
CC[C@@H]1c2c(C#N)ncn2-c2cnc(Nc3ccc(C(=O)NCCCOCC(=O)N[C@H](C(=O)N4C[C@H](O)C[C@H]4C(=O)NCc4ccc(-c5scnc5C)cc4)C(C)(C)C)cc3OC)nc2N1C1CCCC1 [UB-180542]	6.00 to 7.00	< 6.00	–
CC[C@@H]1c2c(C#N)ncn2-c2cnc(Nc3ccc(C(=O)NCCCC(=O)N[C@H](C(=O)N4C[C@H](O)C[C@H]4C(=O)NCc4ccc(-c5scnc5C)cc4)C(C)(C)C)cc3OC)nc2N1C1CCCC1 [UB-180543]	7.00 to 8.00	< 6.00	–
CC[C@@H]1c2c(C#N)ncn2-c2cnc(Nc3ccc(C(=O)NCCOCC(=O)N[C@H](C(=O)N4C[C@H](O)C[C@H]4C(=O)NCc4ccc(-c5scnc5C)cc4)C(C)(C)C)cc3OC)nc2N1C1CCCC1 [UB-180544]	7.00 to 8.00	< 6.00	–
CC[C@@H]1c2c(C#N)ncn2-c2cnc(Nc3ccc(C(=O)NCCOCCOCCOCC(=O)Nc4cccc5c4CN(C4CCC(=O)NC4=O)C5=O)cc3OC)nc2N1C1CCCC1 (stereo partly shown) [UB-180545]	6.00 to 7.00	< 6.00	–
CC[C@@H]1c2nncn2-c2cnc(Nc3ccc(C(=O)NCCOCCOCCOCC(=O)Nc4cccc5c4CN(C4CCC(=O)NC4=O)C5=O)cc3OC)nc2N1C1CCCC1 (stereo partly shown) [UB-180546]	< 6.00	< 6.00	–
CC[C@@H]1c2nncn2-c2cnc(Nc3ccc(C(=O)NCCOCCOCCC(=O)Nc4cccc5c4CN(C4CCC(=O)NC4=O)C5=O)cc3OC)nc2N1C1CCCC1 (stereo partly shown) [UB-180547]	< 6.00	< 6.00	–
CC[C@@H]1c2c(C#N)ncn2-c2cnc(Nc3ccc(C(=O)NCCOCCOCCOCCC(=O)Nc4cccc5c4CN(C4CCC(=O)NC4=O)C5=O)cc3OC)nc2N1C1CCCC1 (stereo partly shown) [UB-180548]	< 6.00	< 6.00	–
CC[C@@H]1c2nncn2-c2cnc(Nc3ccc(C(=O)NCCOCCOCCOCCC(=O)Nc4cccc5c4CN(C4CCC(=O)NC4=O)C5=O)cc3OC)nc2N1C1CCCC1 (stereo partly shown) [UB-180549]	< 6.00	< 6.00	–
CC[C@@H]1c2nncn2-c2cnc(Nc3ccc(C(=O)NCCOCCOCCC(=O)N[C@H](C(=O)N4C[C@H](O)C[C@H]4C(=O)NCc4ccc(-c5scnc5C)cc4)C(C)(C)C)cc3OC)nc2N1C1CCCC1 [UB-180550]	< 6.00	< 6.00	–
CC[C@@H]1c2c(C#N)ncn2-c2cnc(Nc3ccc(C(=O)NCCOCCOCCOCCOCCC(=O)Nc4cccc5c4CN(C4CCC(=O)NC4=O)C5=O)cc3OC)nc2N1C1CCCC1 (stereo partly shown) [UB-180551]	< 6.00	< 6.00	–
CC[C@@H]1C(=O)N(C)c2cnc(Nc3ccc(C(=O)NCCOCCOCCOCCNCCCC(=O)Nc4cccc5c4CN(C4CCC(=O)NC4=O)C5=O)cc3OC)nc2N1C1CCCC1 (stereo partly shown) [UB-180647]	–	–	pEC50 ([1]; MV4;11 cells): 7.00 to 8.00; pEC50 [3]: < 6.00; DC50 (PLK1; [5]): 10 to 100 nM; DC50 (BRD4; [6]): < 10 nM
CC[C@@H]1C(=O)N(C)c2cnc(Nc3ccc(C(=O)NCCCNCCCCC(=O)Nc4cccc5c4CN(C4CCC(=O)NC4=O)C5=O)cc3OC)nc2N1Cc1ccc(Cl)s1 (stereo partly shown) [UB-180673]	7.00 to 8.00	–	DC50 (PLK1; [7]): 10 to 100 nM; DC50 (BRD4; [8]): 10 to 100 nM
CC[C@@H]1C(=O)N(C)c2cnc(Nc3ccc(C(=O)NCCCNCCCCCCCC(=O)Nc4cccc5c4CN(C4CCC(=O)NC4=O)C5=O)cc3OC)nc2N1Cc1ccc(Cl)s1 (stereo partly shown) [UB-180674]	> 8.00	–	DC50 (PLK1; [7]): < 10 nM; DC50 (BRD4; [8]): < 10 nM
CC[C@@H]1C(=O)N(C)c2cnc(Nc3ccc(C(=O)NC4CCN(CCNCCOCC(=O)Nc5cccc6c5CN(C5CCC(=O)NC5=O)C6=O)C4)cc3OC)nc2N1C1CCCC1 (stereo partly shown) [UB-180703]	7.00 to 8.00	–	DC50 (PLK1; [5]): 10 to 100 nM; DC50 (BRD4; [6]): < 10 nM
CC[C@@H]1C(=O)N(C)c2cnc(Nc3ccc(C(=O)NCc4cn(CCCN(CCC(=O)Nc5cccc6c5CN(C5CCC(=O)NC5=O)C6=O)C(=O)OCc5ccc(NC(=O)[C@H](CCCNC(N)=O)NC(=O)[C@@H](NC(=O)CCCCCN6C(=O)C=CC6=O)C(C)C)cc5)nn4)cc3OC)nc2N1C1CCCC1 (stereo partly shown) [UB-180717]	6.00 to 7.00	–	DC50 (PLK1; [9]): 10 to 100 nM; DC50 (BRD4; [10]): 10 to 100 nM
CC[C@@H]1c2c(C#N)ncn2-c2cnc(Nc3ccc(C(=O)NCc4cn(CCNCCOCC(=O)Nc5cccc6c5CN(C5CCC(=O)NC5=O)C6=O)nn4)cc3OC)nc2N1C1CCCC1 (stereo partly shown) [UB-180718]	6.00 to 7.00	–	DC50 (PLK1; [9]): 100 to 1000 nM; DC50 (BRD4; [10]): 100 to 1000 nM
CC[C@@H]1C(=O)N(C)c2cnc(Nc3ccc(C(=O)NC4CCN(CCOCCNCC(=O)Nc5cccc6c5CN(C5CCC(=O)NC5=O)C6=O)CC4)cc3OC)nc2N1Cc1cnc(C)s1 (stereo partly shown) [UB-180745]	> 8.00	–	DC50 (PLK1; 6 h, read-out: PLK1 DC50 (nM) (6 h)): > 1000 nM; DC50 (PLK1; [9]): < 10 nM; DC50 (BRD4; 6 h, read-out: BRD4 DC50 (nM) (6 h)): < 10 nM; DC50 (BRD4; [10]): < 10 nM
